Counter-ions that a name gives are not always drawn.

The results in this text go back to patent publication US5627191A, “Therapeutic agents” (The Boots Company PLC, priority 1992, dated 1997).

Assay [1] deals with T1, adrenal membrane angiotensin II receptor (Oryctolagus cuniculus, UniProt P34976).
T1 construct: Aliquots of rabbit adrenal membranes containing 10-30 μg protein were incubated; from tissue; host or cells: adrenal gland membranes of male New Zealand white rabbits
T1 sequence (P34976 1-359): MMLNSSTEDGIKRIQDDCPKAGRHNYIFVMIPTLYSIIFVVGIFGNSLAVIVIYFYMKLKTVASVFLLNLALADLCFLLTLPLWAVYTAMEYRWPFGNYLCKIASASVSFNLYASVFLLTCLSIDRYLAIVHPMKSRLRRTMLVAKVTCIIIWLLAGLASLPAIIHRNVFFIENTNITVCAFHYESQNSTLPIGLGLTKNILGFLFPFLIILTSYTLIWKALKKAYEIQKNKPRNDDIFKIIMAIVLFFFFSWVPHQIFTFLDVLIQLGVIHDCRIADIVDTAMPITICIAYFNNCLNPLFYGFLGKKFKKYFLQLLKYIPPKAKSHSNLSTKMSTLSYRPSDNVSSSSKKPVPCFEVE
As to the kind of experiment: Test A: binding affinity to the adrenal membrane angiotensin II receptor in vitro. The settings on record: rabbit adrenal membranes, 0.05 nM [^125 I]angiotensin II, 60 minutes at 25° C.; read-out: Ki from Test A. Also noted: species or system rabbit (male New Zealand white). The protocol:
In test A the binding affinity of compounds to the adrenal membrane angiotensin II receptor was determined in vitro and in tests B and C the antihypertensive effect of the compounds was measured in vivo. A detailed description of the tests follows. Test A 1) Preparation of Membranes Adrenal glands from male New Zealand white rabbits were homogenised on ice in 20 mM aqueous sodium bicarbonate solution containing 50 μM PMSF (phenylmethanesulphonyl fluoride) (2 ml/g wet weight) using a Polytron (Trademark) homogeniser for 3×15 seconds at setting 8. The homogenate was centrifuged at 900 g for 10 minutes at 4° C. and the pellet was discarded. The supernatant was recentrifuged at 30000 g for 30 minutes at 4° C., and the resulting pellet was resuspended in assay buffer (50 mM Tris-HCl, pH 7.4, containing 1 mM EDTA, 6.5 mM MgCl2, 125 mM NACl, 50 μM PMSF, 5 μg/ml pepstatin and 50 μg/ml each of leupeptin, antipain, aprotinin and chymostatin): 10 ml per g original tissue wet weight. Polyethylene glycol was added (final concentration 30%) as a cryopreservant and the membrane preparation divided into aliquots and stored at -80° C. until required. Protein was determined by a modification of the method of Lowry (Markwell et al, (1978) Anal. Biochem., 87: 206-210). 2) Binding Assay Aliquots of rabbit adrenal membranes containing 10-30 μg protein were incubated with 0.05 nM [^125 I]angiotensin II in the presence or absence of potential angiotensin II antagonists in 1 ml polyamide tubes in a total volume of 200 μI assay buffer. After incubation for 60 minutes am 25° C. the reaction was terminated by the addition of ice-cold assay buffer, and the bound and free radioactivity was separated through Skatron (Trademark) receptor-binding filters, pre-wetted with assay buffer, using a Skatron cell harvester. The filters were washed with ice-cold phosphate buffered saline, dried, and the trapped radioactivity was determined using a gamma counter. Non-specific binding, measured in the presence of 2 μM unlabelled angiotensin II, was subtracted from total binding to obtain specific binding. Radioligand binding curves were analysed using EBDA and LIGAND (Cambridge Biosoft). Values for binding affinity were obtained by nonlinear regression analysis of untransformed data. The activities of the compounds described in the Examples given hereinafter are set out below in Table A, Column 1.

The subject of assay [2] is Aoki-Okamoto strain of spontaneously hypertensive rat. As to the kind of experiment: Test B: oral antihypertensive effect, threshold dose. The settings on record: dose giving a reduction of blood pressure of between 9 and 16% after correction, 1.5 and 5.0 hours after dosing; for minimal effective dose: Rattus norvegicus, po, 5 h, read-out: Threshold anti-hypertensive dose from Test B. The class given is in vivo. The protocol:
(§1) In test A the binding affinity of compounds to the adrenal membrane angiotensin II receptor was determined in vitro and in tests B and C the antihypertensive effect of the compounds was measured in vivo. A detailed description of the tests follows.
(§2) Female rats, weight range 180-240 g, of the Aoki-Okamoto strain of spontaneously hypertensive rat were used. The rats in groups of four were fasted overnight before administration of the test compound. Blood pressure was determined in the following way. The rats were placed in a cabinet kept at 38° C. with their tails protruding through holes in the cabinet. After 30 minutes in the cabinet blood pressure was measured using an inflatable cuff placed round the base of the mail and arterial pulsations monitored with a pneumatic pulse transducer. […] The pressure in the cuff at which arterial pulsations reappeared was taken as the blood pressure. The rats were removed from the cabinet and each group orally dosed with a given dose of the test compound given as a solution or suspension in 0.25% aqueous carboxymethylcellulose. In addition to the predose reading, blood pressure was measured at 1.5 and 5.0 hours after dosing. The degree of blood pressure reduction sufficient to achieve a significance level of p<0.01 compared to controls was 9% after correction for control changes at appropriate time intervals. Thus, compounds were considered to be active in this test if they produced a reduction of blood pressure after correction of 9% or greater than 9%.
(§3) Threshold antihypertensive doses of compounds of formula I were determined in the following way. Compounds were tested initially at a particular dose level, for example 90 mg/kg.
The activities of the compounds described in the Examples given hereinafter are set out below in Table A, Column 2.

Assay [3] has the same test system. As to the kind of experiment: Test C: oral antihypertensive effect after pretreatment with bendrofluazide, threshold dose. Type of assay: in vivo. The settings on record: pretreated with bendrofluazide 10 mg/kg at 16 hours and 2 hours prior to dose. The protocol: as §1, §2, §3
The procedure of Test B above was carried out subject to the modification of pretreating the rats with bendrofluazide 10 mg/kg (an orally administered diuretic) at 16 hours and 2 hours prior to the dose of the test compound, to ensure activation of the reninangiotensin system.
The activities of the compounds described in the Examples given hereinafter are set out below in Table A, Column 3.

By Ki is commonly meant the equilibrium dissociation constant of an inhibitor or competing ligand from its target. On to `CCc1nc2c(C)cc(C)nc2n1Cc1ccc(-c2ccccc2-c2c(O)c(=O)c2=O)cc1` (single isomer, unassigned) [Example 4, 3-[4'-(2-ethyl-5,7-dimethyl-3H-imidazo[4,5-b]pyrid-3-ylmethyl)biphenyl-2-yl]-4-hydroxycyclobut-3-ene-1,2-dione], for which the Ki in assay [1] was 5 nM. The “Threshold anti-hypertensive dose from Test B” value in assay [2] is 0.1 mg/kg. In addition, the “Threshold anti-hypertensive dose from Test C” value in assay [3] is 0.1 mg/kg.

Consider `CCc1nc2c(C)cc(C)nc2n1Cc1ccc(-c2ccccc2-c2c(O)c(=O)c2=O)cc1` (single isomer, unassigned) [Example 5, sodium salt of 3-[4'-(2-ethyl-5,7-dimethyl-3H-imidazo[4,5-b]pyrid-3-ylmethyl)biphenyl-2-yl]-4-hydroxycyclobut-3-ene-1,2-dione], for which the Ki in assay [1] stood at 1.78 nM. Further, in assay [2], the “Threshold anti-hypertensive dose from Test B” value came to 1 mg/kg. In assay [3], the “Threshold anti-hypertensive dose from Test C” value amounted to 1 mg/kg.

Take `CCc1nc2c(C)cc(C)nc2n1Cc1ccc(-c2ccccc2-c2c(OC(C)C)c(=O)c2=O)cc1` [Example 1, 3-[4'-(2-ethyl-5,7-dimethyl-3H-imidazo[4,5-b]pyrid-3-ylmethyl)biphenyl-2-yl]-4-isopropoxycyclobut-3-ene-1,2-dione]: in assay [1], the inhibition constant (Ki) worked out at 97.6 nM. The “Threshold anti-hypertensive dose from Test C” value in assay [3] is listed as 30 mg/kg.

For `CCc1nc2c(C)cc(C)nc2n1Cc1ccc(-c2ccccc2-c2c(N)c(=O)c2=O)cc1` [Example 6, 3-amino-4-[4'-(2-ethyl-5,7-dimethyl-3H-imidazo[4,5-b]pyrid-3-ylmethyl)biphenyl-2-yl]cyclobut-3-ene-1,2-dione], the Ki in assay [1] was found to be 400 nM.

Turning to `CCCc1nc2c(C)cc(C)nc2n1Cc1ccc(-c2ccccc2-c2c(O)c(=O)c2=O)cc1` [Example 8, 3-[4'-(5 7-dimethyl-2-propyl-3H-imidazo[4,5-b]pyrid-3-ylmethyl)biphenyl-2-yl]-4-hydroxycyclobut-3-ene-1,2-dione], the Ki in assay [1] is 3.19 nM. Further, the minimal effective dose in assay [2] was determined as 10 mg/kg. Besides, in assay [3], the “Threshold anti-hypertensive dose from Test C” value is listed as below 10 mg/kg.

With `CCCc1nc2c(C)cc(C)nc2n1Cc1ccc(-c2ccccc2-c2c(O)c(=O)c2=O)cc1` [Example 9, sodium salt of 3-[4'-(5,7-dimethyl-2-propyl-3H-imidazo[4,5-b]-pyrid-3-ylmethyl)biphenyl-2-yl]-4-hydroxycyclobut-3-ene-1,2-dione], the Ki in assay [1] was determined as 3.71 nM. For the same molecule, in assay [2], the “Threshold anti-hypertensive dose from Test B” value is 10 mg/kg. Also, the “Threshold anti-hypertensive dose from Test C” value in assay [3] is 0.1 mg/kg.

In the case of `CCc1nc2c(C)c(S(=O)(=O)N(C)C)c(C)nc2n1Cc1ccc(-c2ccccc2-c2c(O)c(=O)c2=O)cc1` [Example 11, 2-ethyl-3-[2'-(2-hydroxy-3,4-dioxocyclobut-1-en-1-yl)biphenyl-4-ylmethyl]-5,7, N,N-tetramethyl-3H-imidazo[4,5-b]pyridine-6-sulphonamide mono-ethyl acetate solvate], the Ki in assay [1] turned out to be 393 nM.

Consider `CCc1nc2c(C)c(Cl)c(C)nc2n1Cc1ccc(-c2ccccc2-c2c(O)c(=O)c2=O)cc1` [Example 12, 3-[4'-(6-chloro-2-ethyl-5,7-dimethyl-3H-imidazo-[4,5-b]pyrid-3-ylmethyl)biphenyl-2-yl]-4-hydroxy-cyclobut-3-ene-1,2-dione hydrochloride], for which the Ki in assay [1] stood at 13.3 nM.

Regarding `CCc1nc2c(C)cc(C)nc2n1Cc1ccc(-c2ccccc2-c2c(OCOC(=O)C(C)(C)C)c(=O)c2=O)cc1` [Example 13, 2-[4'-(2-ethyl-5,7-dimethyl-3H-imidazo[4,5-b]pyrid-3-ylmethyl)biphenyl-2-yl]-3,4-dioxocyclobut-1-en-1-yloxymethyl pivalate], in assay [1], the Ki came to 19 nM. In addition, in assay [2], the minimal effective dose was 10 mg/kg. Besides, the “Threshold anti-hypertensive dose from Test C” value in assay [3] was below 10 mg/kg.

As for `CCCc1nc(CC)c(C=O)n1Cc1ccc(-c2ccccc2-c2c(O)c(=O)c2=O)cc1` [Example 15, 4-ethyl-1-[2'-(2-hydroxy-3,4-dioxocyclobut-1-en-1-yl)biphenyl-4-ylmethyl]-2-propyl-1H-imidazole-5-carboxaldehyde], the Ki in assay [1] stood at 13.5 nM. For the same molecule, the “Threshold anti-hypertensive dose from Test C” value in assay [3] is 3 mg/kg.

In the case of `CCCCN(Cc1ccc(-c2ccccc2-c2c(O)c(=O)c2=O)cc1)c1ncncc1C(=O)O` [Example 20, 4-[N-butyl-N-[2'-(2-hydroxy-3,4-dioxocyclobut-1-en-1-yl)biphenyl-4-ylmethyl]amino]pyrimidine-5-carboxylicacid 0.6 hydrochloride], in assay [1], the Ki is 81.7 nM. Further, the minimal effective dose in assay [2] is 3 mg/kg. In addition, the “Threshold anti-hypertensive dose from Test C” value in assay [3] came to 1 mg/kg.

As for `CCCCC1=NC2(CCCC2)C(=O)N1Cc1ccc(-c2ccccc2-c2c(O)c(=O)c2=O)cc1` [Example 22, 3-[4'-(2-butyl-5-oxo-2-imidazoline-4-spirocyclopent-1-ylmethyl)biphenyl-2-yl]-4-hydroxycyclobut-3-ene-1,2-dione], the Ki in assay [1] came out at 3.68 nM. Moreover, the “Threshold anti-hypertensive dose from Test C” value in assay [3] is listed as 30 mg/kg.

As to `CCCCc1nc(Cl)c(C=O)n1Cc1ccc(-c2ccccc2-c2c(O)c(=O)c2=O)cc1` [Example 24, 2-butyl-4-chloro-1-[2'-(2-hydroxy-3,4-dioxocyclobut-1-en-1-yl)biphenyl-4-ylmethyl]-1H-imidazole-5-carboxaldehyde], the Ki in assay [1] was 11.1 nM. Besides, the “Threshold anti-hypertensive dose from Test C” value in assay [3] came out at 3 mg/kg.

On to `CCCCc1nc(Cl)c(C(=O)OC)n1Cc1ccc(-c2ccccc2-c2c(O)c(=O)c2=O)cc1` [Example 28, methyl 2-butyl-4-chloro-1-[2'-(2-hydroxy-3,4-dioxo-cyclobut-1-en-1-yl)biphenyl-4-ylmethyl]-1H-imidazole-5-carboxylate], for which, in assay [1], the Ki is 27.7 nM. For the same molecule, in assay [3], the “Threshold anti-hypertensive dose from Test C” value stood at 10 mg/kg.

In the case of `CCCCc1nc(Cl)c(/C=C(\Cc2ccccc2)C(=O)O)n1Cc1ccc(-c2c(O)c(=O)c2=O)cc1` [Example 30, (E)-2-benzyl-3-[2-butyl-4-chloro-1-[4-(2-hydroxy-3,4-dioxocyclobut-1-en-1-yl)benzyl]-1H-imidazol-5-yl]propenoic acid], the Ki in assay [1] came out at 77.9 nM. For the same molecule, the “Threshold anti-hypertensive dose from Test C” value in assay [3] was at most 10 mg/kg.
